Measured values from US11091447B2, “UBE2K modulators and methods for their use” (Berg LLC, priority 2020, dated 2021).

Test system: MIA PaCa-2 cells
Assay: Cellular viability assay (Cell Titer Fluor)
Assay type: cell-based
Conditions: Homo sapiens, 72 hours incubation
Experimental: Cell viability were performed using the Cell Titer Fluor™ Assays (Promega G6080). MIA PaCa-2 cells are grown in DMEM media with 10% FBS, 1% Pen/Strep/Amphotericin B. Cells are trypsinized and counted using the Nexcelom cellometer. 5,000 cells/100 μl are plated per well in Greiner black/clear 96-well plates. Cells should be within 10 passages of stock vial for use in workflow. Three distinct lineages of these cells are cultured in parallel for multiple passages and 5 full plates of each lineage are seeded for one run. Small molecule compounds are provided as 100 mM stock solutions in DMSO. Dilution series plates are prepared using 1:3 dilution to achieve a 7 point concentration on a half log scale. After addition of compounds, cells are incubated 37° C., 5% CO2 for 72 hours.
For each test compound condition, triplicate technical replicates are used. For each reference compound, duplicate technical replicates are used. At the end of the 72-hour incubation, spent media is discarded. Then, 100 μl of GF-AFC diluted in DMEM (serum and phenol red-free) is added at 1:2000 concentration (5 μl/10 ml). Cells are incubated with reaction buffer for 1 h at 37° C. Fluorescence is then read on the plate reader with excitation wavelength of 390 nm and emission wavelength of 505 nm. All raw data are analyzed on Microsoft Excel 2010 and normalized to the DMSO vehicle control. Relative results are copied into GraphPad Prism for non-linear regression analysis and determination of IC50 and other dose curve parameters (min, max, Hill slope, etc.) using the log (inhibitor) vs. response equation. Values are as follows: A represents an IC50 of <[…], B represents an IC50 of 1 mM to 10 mM, C represents an IC50 of >10 mM.

| IC50 (MIA PaCa-2, 72 h) [nM] | SMILES | IC50 [nM] |
| --- | --- | --- |
| < 1000 | O=C(NCc1n[nH]c(-c2ccccc2O)n1)c1ccccc1OC(F)F [Compound 60, 2-(Difluoromethoxy)-N-((5-(2-hydroxyphenyl)-1H-1,2,4-triazol-3-yl)methyl) benzamide] |  |
| > 10000 | CN(C)c1ccccc1-c1cc(CNC(=O)c2ccccc2OC(F)(F)F)n[nH]1 [Compound 30] |  |
| 1000 to 10000 | O=C(NCc1cc(-c2cccs2)[nH]n1)c1cccc(C(F)(F)F)c1N1CCCC1 [Compound 82] |  |
| < 1000 | COc1ccc(F)cc1-c1nc(CNC(=O)c2cc(F)ccc2OC(F)F)n[nH]1 [Comp 137] |  |
|  | COc1ccc(F)cc1-c1nc(CNC(=O)c2ccccc2OC(F)(F)F)n[nH]1 [Compound 127, N-((5-(5-fluoro-2-methoxyphenyl)-1H-1,2,4-triazol-3-yl)methyl)-2-(trifluoromethoxy)benzamide] | < 1000 |
| < 1000 | CCOc1ccccc1-c1nc(CNC(=O)c2ccccc2OC(F)F)n[nH]1 [Compound 58] |  |
| 1000 to 10000 | O=C(NCc1n[nH]c(-c2cccs2)n1)c1ccccc1N1CCC(F)(F)CC1 [Compound 76, 2-(4,4-difluoropiperidin-1-yl)-N-((5-(thiophen-2-yl)-1H-1,2,4-triazol-3-yl)methyl) benzamide] |  |
| > 10000 | O=C(NCc1cc(-c2cc(F)cc(F)c2O)[nH]n1)c1ccccc1OC(F)(F)F [Compound 50] |  |
| > 10000 | O=C(NCc1n[nH]c(-c2cccs2)n1)c1nccnc1N1CCC(F)(F)C1 [Compound 87, 3-(3,3-difluoropyrrolidin-1-yl)-N-((5-(thiophen-2-yl)-1H-1,2,4-triazol-3-yl)methyl) pyrazine-2-carboxamide] |  |
| < 1000 | CC(C)Oc1ccc(F)cc1-c1cc(CNC(=O)c2cc(F)ccc2N2CCCC2)n[nH]1 [Compound 98] |  |
| < 1000 | Cc1ccc(N2CCCC(F)(F)C2)c(C(=O)NCc2cc(-c3cccs3)[nH]n2)c1 [Compound 96] |  |
| < 1000 | O=C(NCc1cc(-c2ccccc2O)[nH]n1)c1cc(F)ccc1N1CCCCC1 [Compound 101] |  |
| > 10000 | CCOc1ccc(Br)cc1-c1nc(CNC(=O)c2ccccc2OC(F)F)n[nH]1 [Compound 59] |  |
| 1000 to 10000 | COc1c(F)cc(F)cc1-c1cc(CNC(=O)c2ccccc2OC(F)(F)F)n[nH]1 [Compound 49] |  |
| 1000 to 10000 | COc1cccnc1-c1nc(CNC(=O)c2ccccc2OC(F)(F)F)n[nH]1 [Compound 34, N-((5-(3-methoxypyridin-2-yl)-1H-1,2,4-triazol-3-yl)methyl)-2-(trifluoromethoxy)benzamide] |  |
| 1000 to 10000 | COc1ccccc1-c1nc(CNC(=O)c2cnccc2OC(F)F)n[nH]1 [Compound 148] |  |
| > 10000 | O=C(NCc1n[nH]c(-c2cccs2)n1)c1ccccc1NCC(F)F [Compound 73] |  |
| < 1000 | COc1ccc(F)cc1-c1cc(CNC(=O)c2cc(F)ccc2N2CCCCC2)n[nH]1 [Compound 110] |  |
| > 10000 | O=C(NCc1n[nH]c(-c2cccs2)n1)c1ccccc1CC(F)(F)F [Compound 8] |  |
| < 1000 | COc1ccsc1-c1cc(CNC(=O)c2ccccc2OC(F)(F)F)n[nH]1 [Compound 36] |  |
| < 1000 | COc1ccccc1-c1nc(CNC(=O)c2ccccc2OC(F)(F)F)n[nH]1 [Compound 125] |  |

| IC50 (MIA PaCa-2, 72 h) [nM] | SMILES | IC50 [nM] |
| --- | --- | --- |
| 1000 to 10000 | N#Cc1ccc(N2CCCC2)c(C(=O)NCc2cc(-c3cccs3)[nH]n2)c1 [Compound 84] |  |
| < 1000 | COc1ccc(F)cc1-c1cc(CNC(=O)c2ccccc2OC(F)(F)F)n[nH]1 [Compound 51] |  |
| > 10000 | O=C(NCc1n[nH]c(-c2cccs2)n1)c1ccccc1N1CC(F)(F)C1 [Compound 74] |  |
| < 1000 | COc1ccccc1-c1nc(CNC(=O)c2cc(F)ccc2OC(F)F)n[nH]1 [Compound 138, 2-(difluoromethoxy)-5-fluoro-N-((5-(2-methoxyphenyl)-1H-1,2,4-triazol-3-yl)methyl) benzamide] |  |
| 1000 to 10000 | COc1c(O)cccc1-c1nc(CNC(=O)c2ccccc2OC(F)F)n[nH]1 [Compound 62, 2-(difluoromethoxy)-N-((5-(3-hydroxy-2-methoxyphenyl)-1H-1,2,4-triazol-3-yl)methyl) benzamide] |  |
| > 10000 | CCOc1ccc(Cl)cc1-c1cc(CNC(=O)c2ccccc2OC(F)F)n[nH]1 [Compound 47] |  |
| > 10000 | O=C(NCc1n[nH]c(-c2cccs2)n1)c1nccnc1N1CCC(F)(F)CC1 [Compound 89] |  |
| > 10000 | Cc1cscc1-c1cc(CNC(=O)c2ccccc2OC(F)(F)F)n[nH]1 [Compound 16, N-((5-(4-methylthiophen-3-yl)-1H-pyrazol-3-yl)methyl)-2-(trifluoromethoxy) benzamide] |  |
| < 1000 | COc1ccccc1-c1nc(CNC(=O)c2cccnc2OC(F)F)n[nH]1 [Compound 144, 2-(difluoromethoxy)-N-((5-(2-methoxyphenyl)-1H-1,2,4-triazol-3-yl)methyl) nicotinamide] |  |
| > 10000 | COc1ccc(-c2cc(CNC(=O)c3ccccc3OC(F)(F)F)n[nH]2)c(OC)c1 [Compound 117] |  |
| > 10000 | COc1cnccc1-c1cc(CNC(=O)c2ccccc2OC(F)(F)F)n[nH]1 [Compound 37] |  |
| > 10000 | O=C(NCc1cc(-c2cccs2)[nH]n1)c1ccccc1OC(F)(F)F [Compound 5] |  |
| < 1000 | O=C(NCc1cc(-c2cccs2)[nH]n1)c1ccccc1N1CCCCC1 [Compound 68] |  |
| < 1000 | COc1ccccc1-c1cc(CNC(=O)c2cc(F)ccc2N2CCCC2)n[nH]1 [Compound 104] |  |
| > 10000 | O=C(NCc1cc(-c2ccsc2Cl)[nH]n1)c1ccccc1OC(F)(F)F [Compound 22] |  |
| 1000 to 10000 | CCOc1ccc(F)cc1-c1cc(CNC(=O)c2ccccc2OC(F)(F)F)n[nH]1 [Compound 44] |  |
| > 10000 | O=C(NCc1cc(-c2cc(O)ccc2O)[nH]n1)c1ccccc1OC(F)(F)F [Compound 40, N-((5-(2,5-dihydroxyphenyl)-1H-pyrazol-3-yl)methyl)-2-(trifluoromethoxy) benzamide] |  |
| < 1000 | COc1ccccc1-c1cc(CNC(=O)c2ccccc2N2CCCC2)n[nH]1 [Compound 105] |  |
| < 1000 | O=C(NCc1n[nH]c(-c2cc(F)ccc2O)n1)c1ccccc1OC(F)F [Compound 129] |  |
| 1000 to 10000 | O=C(NCc1cc(-c2cccs2)[nH]n1)c1cc(O)ccc1N1CCCC(F)(F)C1 [Compound 81] |  |
| > 10000 | COc1cccc(-c2cc(CNC(=O)c3ccccc3OC(F)(F)F)n[nH]2)c1OC [Compound 114] |  |

| IC50 (MIA PaCa-2, 72 h) [nM] | SMILES | IC50 [nM] |
| --- | --- | --- |
| 1000 to 10000 | COc1ccncc1-c1nc(CNC(=O)c2ccccc2OC(F)(F)F)n[nH]1 [Compound 35] |  |
| > 10000 | O=C(NCc1cc(-c2cccs2)[nH]n1)c1cccnc1N1CC(F)(F)C1 [Compound 88] |  |
| > 10000 | O=C(NCc1cc(-c2csc(Cl)c2)[nH]n1)c1ccccc1OC(F)(F)F [Compound 21] |  |
| > 10000 | COc1ccc(C(F)(F)F)cc1-c1cc(CNC(=O)c2ccccc2OC(F)(F)F)n[nH]1 [Compound 20] |  |
| 1000 to 10000 | COc1ccccc1-c1nc(S(=O)(=O)NC(=O)c2ccccc2OC(F)(F)F)n[nH]1 [Compound 123, N-((5-(2-methoxyphenyl)-1H-1,2,4-triazol-3-yl)sulfonyl)-2-(trifluoromethoxy) benzamide] |  |
| < 1000 | O=C(NCc1n[nH]c(-c2cc(F)ccc2O)n1)c1ccccc1OC(F)(F)F [Compound 130] |  |
| < 1000 | COc1ccccc1-c1cc(CNC(=O)c2ccccc2OC(F)(F)F)n[nH]1 [Compound 31] |  |
| < 1000 | CCOc1ccccc1-c1nc(CNC(=O)c2ccccc2OC(F)(F)F)n[nH]1 [Compound 57] |  |
| < 1000 | COc1ccccc1-c1nc(CNC(=O)c2cccc(F)c2OC(F)F)n[nH]1 [Compound 136, 2-(difluoromethoxy)-3-fluoro-N-((5-(2-methoxyphenyl)-1H-1,2,4-triazol-3-yl)methyl) benzamide] |  |
| < 1000 | COc1ccccc1-c1nc(CNC(=O)c2cccc3c2OC(F)(F)O3)n[nH]1 [Compound 132] |  |
| > 10000 | O=C(NCc1cc(-c2cccnc2O)[nH]n1)c1ccccc1OC(F)(F)F [Compound 28] |  |
| > 10000 | COc1ncccc1-c1cc(CNC(=O)c2ccccc2OC(F)(F)F)n[nH]1 [Compound 27] |  |
| > 10000 | O=C(NCc1cc(-c2cccs2)[nH]n1)c1ccccc1N1CCS(=O)(=O)CC1 [Compound 70] |  |
| > 10000 | O=C(NCc1cc(-c2cccs2)[nH]n1)c1ccccc1OC(F)F [Compound 4] |  |
| 1000 to 10000 | O=C(NCc1cc(-c2cccs2)[nH]n1)c1cc(C(F)(F)F)ccc1N1CCCC1 [Compound 83] |  |
| > 10000 | CCCOc1ccc(F)cc1-c1cc(CNC(=O)c2ccccc2OC(F)(F)F)n[nH]1 [Compound 115] |  |
| < 1000 | O=C(NCc1cc(-c2cccs2)[nH]n1)c1cc(F)ccc1N1CCCCC1 [Compound 80, 5-fluoro-2-(piperidin-1-yl)-N-((5-(thiophen-2-yl)-1H-pyrazol-3-yl)methyl) benzamide] |  |
| < 1000 | O=C(NCc1cc(-c2cccs2)[nH]n1)c1ccccc1N1CCOCC1 [Compound 69] |  |
| < 1000 | O=C(NCc1cc(-c2cccs2)[nH]n1)c1ccccc1N1CCCC1 [Compound 72] |  |
